Measurements published in patent US10993999B2, “Materials and methods for producing improved lentiviral vector particles” (IMMUNE DESIGN CORP., priority 2012, dated 2021).

Tested on: Human PBMCs (DCs, B-cells, T-cells)
Assay: Transduction specificity in GM-CSF/IL-4 treated human PBMC culture
Conditions: all cell populations

Cc1ccnc2c1NC(=O)c1cccnc1N2C1CC1 [Nevirapine]
effect of RT inhibitor on transduction: completely ablated
